According to US10987349B2, “Antitumor agent and bromodomain inhibitor” (FUJIFILM Corporation, priority 2016, dated 2021):

Legend:
Jurkat = test: Cell growth test (Cell Titer Blue) Jurkat; assay type: cell-based; details: Homo sapiens, 72 h, Acute lymphoblastic leukemia, 3 days
Method: (§1) Moreover, the compound of Example 14 was subjected to a cell growth test using various types of cell lines.
(§2) All cell lines other than the below-noticed cells were each seeded in a well plate, in which an RPMI-1640 medium supplemented with penicillin/streptomycin and FBS with a final concentration of 10% was placed. The human prostate cancer cell line VCaP (ATCC) was seeded in a well plate, in which DMEM medium supplemented with penicillin/streptomycin and FBS with a final concentration of 10% was placed. […] Thereafter, using Enspire Multimode Plate Reader (PerkinElmer), the amount of fluorescence at an excitation wavelength of 531 nm and a fluorescence wavelength of 615 nm was measured. Since the amount of fluorescence is in proportion to the concentration of a florescent product resorufin that is converted from resazurin as a redox dye by living cells, the amount of fluorescence was used as an indicator of the number of living cells. The growth inhibition percentage of the test compound in each concentration was calculated according to the following equation. Growth inhibition percentage (%)=(amount of fluorescence in test compound−added well)/(amount of fluorescence in DMSO−added well)×100 […]

KM12 = test: Cell growth test (Cell Titer Blue) KM12; assay type: cell-based; details: Homo sapiens, 72 h, KM12, Colon cancer, 3 days
Method: as §1, §2

c-Myc protein = test: Expression of c-Myc protein in Ty-82 cells, Western blotting; assay type: cell-based, human; details: 100 nmol/L, 24 hours
Method: It has been known that the antitumor action of a bromodomain inhibitor is associated with a c-Myc protein. Please refer to, for example, Non-Patent Document 3: Delmore J E et al., Cell, Vol. 146, pp. 904 to 917, 2011. With reference to the method described in Non-Patent Document 3, the ability of the compound of the present example to inhibit the expression of a c-Myc protein in cancer cells was evaluated according to Western blotting.
The human undifferentiated thymoma cell line Ty-82 (JCRB) used in the evaluation was seeded in a 6-well plate, in which an RPMI-1640 medium supplemented with penicillin/streptomycin and FBS with a final concentration of 10% was placed. A medium containing a test compound serially diluted with dimethyl sulfoxide (DMSO), or DMSO, was added to each well of the 6-well plate in which the cells had been seeded, and the obtained mixture was then cultured under conditions of 37° C. and 5% CO2 for 24 hours. Thereafter, the cells were recovered, and were then washed with PBS. After that, Lysis Buffer (10-fold diluted Cell Lysis Buffer (10×) (CST Japan), to which Halt Protease and Phosphatase Inhibitor Cocktail (Thermofisher Scientific) were added) was added to the resulting cells. The above-described cell suspension was subjected to an ultrasonic treatment to disintegrate the cells, and was then centrifuged to recover a supernatant. Sample buffer was added thereto, and the obtained mixture was then heated at 95° C. for 5 minutes.
A sample prepared from the above-described supernatant was loaded at a protein mass of 10 μg/lane on XV PANTERA GEL 7.5%-15% (D.R.C), and was then subjected to electrophoresis. The electrophoresed protein was transcribed on a transcription membrane, and was then inoculated with Anti-Myc antibody (CST, Catalog No. 9402) and then with IRDye® 680LT Donkey anti-Rabbit IgG (H+L) (LI-COR). Using Odessey (LI-COR), the fluorescence intensity at an excitation wavelength of 700 nm was measured, and the expression level of the c-Myc protein was then quantified.

BRD2 BD1 = target: T1, BRD2 BD1 (Homo sapiens, UniProt P25440); test: Binding assay, BRD2 BD1 to acetylated histone H4 Peptide-Biotin (EPIgeneous Binding Domain Kit A); details: for inhibition at 0.3 µM: test compound at 300 nmol/L, read-out: Binding inhibition percentage BRD2 BD1
T1 construct: BRD2 BD1, BRD3 BD1 and BRD4 BD1 (Cisbio); purchased Cisbio
T1 sequence (P25440 74-180 limits assumed): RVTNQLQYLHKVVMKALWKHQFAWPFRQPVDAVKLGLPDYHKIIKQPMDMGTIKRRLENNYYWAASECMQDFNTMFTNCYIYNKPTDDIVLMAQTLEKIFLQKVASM
How it was run: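 HTRF competition: bromodomain protein (added at 20 nmol/L) and biotinylated tetra-acetyl H4(1-25) peptide (added at 25 nmol/L) were incubated with compound, streptavidin-d2 and anti-GST Eu cryptate for 20 h at room temperature. Inhibition came from the 665/620 nm ratio relative to DMSO; IC50 by four-parameter fit; some compounds were tested only at 300 nmol/L final.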

MDA-MB-453 = test: Cell growth test (Cell Titer Blue) MDA-MB-453; assay type: cell-based; details: Homo sapiens, 72 h, MDA-MB-453, Breast cancer, 3 days
Method: as §1, §2

HL-60 = test: Cell growth test (Cell Titer Blue) HL-60; assay type: cell-based; details: Homo sapiens, 72 h, HL-60, Acute myeloid leukemia, 3 days
Method: as §1, §2

CCRF-CEM = test: Cell growth test (Cell Titer Blue) CCRF-CEM; assay type: cell-based; details: Homo sapiens, 72 h, Acute lymphoblastic leukemia, 3 days
Method: as §1, §2

HT-29 = test: Cell growth test (Cell Titer Blue) HT-29; assay type: cell-based; details: Homo sapiens, 72 h, HT-29, Colon cancer, 3 days
Method: as §1, §2

CCn1c(=O)cc(C2CCN(C)CC2)c2cc(C(=O)N(C)c3ccc(C)cc3)ccc21 [Example 14, 1-Ethyl-N-methyl-N-(4-methylphenyl)-4-(1-methylpiperidin-4-yl)-2-oxo-1,2-dihydroquinoline-6-carboxamide]
GI50 (Jurkat): 129 nM | GI50 (KM12): 1490 nM | expression level of c-Myc protein (c-Myc protein): significantly reduced | IC50 (BRD2 BD1): 9 nM | inhibition at 0.3 µM (BRD2 BD1): 93% | GI50 (MDA-MB-453): 115 nM | GI50 (HL-60): 27 nM | GI50 (CCRF-CEM): 65 nM | GI50 (HT-29): 120 nM

CCn1c(=O)cc(C2CCN(C)CC2)c2cc(C(=O)N(C)c3ccc4c(c3)CCC4)ccc21 [Example 17, N-(2,3-dihydro-1H-inden-5-yl)-1-ethyl-N-methyl-4-(1-methylpiperidin-4-yl)-2-oxo-1,2-dihydroquinoline-6-carboxamide]
expression level of c-Myc protein (c-Myc protein): significantly reduced | IC50 (BRD2 BD1): 5 nM | inhibition at 0.3 µM (BRD2 BD1): 93%

CCn1c(=O)cc(N2CCOCC2)c2cc(-n3c(-c4ccc(Cl)cc4)c[nH]c3=O)ccc21 [Example 245, 6-(5-(4-chlorophenyl)-2-oxo-2,3-dihydro-1H-imidazol-1-yl)-1-ethyl-4-(morpholin-4-yl)quinolin-2(1H)-one]
expression level of c-Myc protein (c-Myc protein): significantly reduced | IC50 (BRD2 BD1): 61 nM | inhibition at 0.3 µM (BRD2 BD1): 79%
